In article PMC8900595 (Journal of medicinal chemistry, 2021):

Tested on: H1N1 A/WSN/1933 virus
Format: cell-based, influenza A virus

In the case of `CCN(c1ccccc1C)S(=O)(=O)c1cc(Cl)ccc1Cl` [compound 1, 2,5-dichloro-N-ethyl-N-(o-tolyl)-benzenesulfonamide], the “concentration required for maximum virus inhibition (three logs) while maintaining enough virus production for passages” value is reported as 0.5 μM.
